target: NAMPT enzyme (Homo sapiens (Human), UniProt P43490); assay: Enzyme Assay and NMN Detection (NAMPT reaction, fluorescence detection of NMN); assay type: biochemical; conditions: Table B-1; NAMPT activation, NMN formation
Description: NAMPT reaction was performed in 50 mM HEPES, pH 7.5, containing 5 mM MgCl2, 0.1% Prionex, 0.005% Tween 20, and 1 mM TCEP at room temperature in Greiner 384-well black polypropylene plates. The concentration of substrates and enzymes in the final assay were as follows: ATP (120 uM), nicotinamide (5 uM), phosphoribosylpyrophosphate (6.25 uM), NAMPT enzyme (16 nM), pyrophosphatase (0.04 U/ml) in the final reaction volume 6 uL. Following 2 h incubation the reaction was stopped by addition 2.5 ul 20% acetophenone in dimethyl sulfoxide (DMSO) and 2.5 ul 2 MKOH. Plates were centrifuges and added with 10.5 ul 88% formic acid. The fluorescence (ex380/em460) was measured following another short incubation and 30 min incubation. The increased concentration of NMN was determined from a calibration curve obtained at the time of experiment.

Sequence of NAMPT enzyme (P43490 whole entry, species assumed): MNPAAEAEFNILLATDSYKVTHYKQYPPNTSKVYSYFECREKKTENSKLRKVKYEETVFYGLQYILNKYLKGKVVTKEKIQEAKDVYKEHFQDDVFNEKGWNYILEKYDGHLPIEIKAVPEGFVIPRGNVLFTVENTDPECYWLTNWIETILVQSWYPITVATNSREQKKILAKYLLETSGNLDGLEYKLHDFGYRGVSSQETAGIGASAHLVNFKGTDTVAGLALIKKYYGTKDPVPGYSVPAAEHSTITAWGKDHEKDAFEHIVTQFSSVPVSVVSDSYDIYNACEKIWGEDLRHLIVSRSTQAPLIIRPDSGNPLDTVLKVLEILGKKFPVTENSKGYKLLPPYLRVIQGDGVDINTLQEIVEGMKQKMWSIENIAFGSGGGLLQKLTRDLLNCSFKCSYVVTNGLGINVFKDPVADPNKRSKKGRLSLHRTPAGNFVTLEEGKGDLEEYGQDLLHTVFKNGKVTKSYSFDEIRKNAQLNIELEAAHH

Q: How did the EC50 turn out when `O=C(NCc1cn[nH]c1)Nc1ccc(S(=O)(=O)c2ccccc2)cc1` [1-(4-Benzenesulfonyl-phenyl)-3-(1H-pyrazol-4-ylmethyl)-urea] was run?
A: Its EC50 is under 100 nM.

Q: How did the EC50 turn out when `O=C(NCc1cnco1)Nc1ccc(S(=O)(=O)c2ccccc2)cc1` [1-(4-Benzenesulfonyl-phenyl)-3-oxazol-5-ylmethyl-urea] was run?
A: Its EC50 is under 100 nM.

same assay, conditions: Table B-2; NAMPT activation, NMN formation

Q: `O=C(NCc1ccncc1)Nc1ccc(C(=O)N2Cc3ccccc3C2)cc1` [1-(4-(Isoindoline-2-carbonyl)phenyl)-3-(pyridin-4-ylmethyl)urea] was tested. Which EC50 did it give?
A: Its EC50 is over 20000 nM.

Q: Which EC50 does the source give for `O=C(NCc1ccncc1)Nc1ccc(C(=O)N2CCOCC2)cc1` [1-(4-(Morpholine-4-carbonyl)phenyl)-3-(pyridin-4-ylmethyl)urea] here?
A: The EC50 was 5000 to 20000 nM.

Q: `O=C(NCc1ccncc1)Nc1ccc(C(=O)N2CCCCC2)cc1` [1-(4-(Piperidine-1-carbonyl)phenyl)-3-(pyridin-4-ylmethyl)urea] was tested. Which EC50 did it give?
A: The EC50 was 5000 to 20000 nM.

Q: `O=C(NCc1ccncc1)Nc1ccc(S(=O)(=O)c2ccccc2)cc1` [1-(4-Benzenesulfonyl-phenyl)-3-pyridin-4-ylmethyl-urea] was tested. Which EC50 did it give?
A: The EC50 was under 100 nM.

Q: For `O=C(NCc1ccncc1)Nc1ccc(Cl)cc1` [1-(4-Chlorophenyl)-3-(pyridin-4-ylmethyl)urea], which EC50 is on record?
A: Its EC50 is 5000 to 20000 nM.

Q: Which EC50 does the source give for `O=C(NCc1ccncc1)Nc1ccc(F)cc1` [1-(4-Fluorophenyl)-3-(pyridin-4-ylmethyl)urea] here?
A: The EC50 was over 20000 nM.

Q: How did the EC50 turn out when `COc1ccc(NC(=O)NCc2ccncc2)cc1` [1-(4-Methoxyphenyl)-3-(pyridin-4-ylmethyl)urea] was run?
A: Its EC50 is over 20000 nM.

Q: Which EC50 does the source give for `O=C(NCc1ccncc1)Nc1ccc(S(=O)(=O)Cc2ccccc2)cc1` [1-(4-Phenylmethanesulfonyl-phenyl)-3-pyridin-4-ylmethyl-urea] here?
A: The EC50 was 2000 to 5000 nM.

Q: Which EC50 does the source give for `O=C(NCc1ccncc1)Nc1ccc(NS(=O)(=O)Cc2ccc(Cl)cc2)cc1` [1-(4-chlorophenyl)-N-(4-(3-(pyridin-4-ylmethyl)ureido)phenyl)methanesulfonamide] here?
A: Its EC50 is under 100 nM.

same assay, conditions: Table B-3; NAMPT activation, NMN formation

Q: `O=C(NCc1ccccn1)Nc1ccc(Cl)cc1` [1-(4-Chlorophenyl)-3-(pyridin-2-ylmethyl)urea] was tested. Which EC50 did it give?
A: Its EC50 is over 20000 nM.

Q: `O=C(NCc1cccnc1)Nc1ccc(Cl)cc1` [1-(4-Chlorophenyl)-3-(pyridin-3-ylmethyl)urea] was tested. Which EC50 did it give?
A: Its EC50 is over 20000 nM.

Q: Which EC50 does the source give for `O=C(NCc1ccccn1)Nc1ccc(F)cc1` [1-(4-Fluorophenyl)-3-(pyridin-2-ylmethyl)urea] here?
A: The EC50 was over 20000 nM.

Q: With `O=C(NCc1cccnc1)Nc1ccc(F)cc1` [1-(4-Fluorophenyl)-3-(pyridin-3-ylmethyl)urea] as the compound, how does the EC50 read?
A: The EC50 was over 20000 nM.

Q: Which EC50 does the source give for `COc1ccc(NC(=O)NCc2ccccn2)cc1` [1-(4-Methoxyphenyl)-3-(pyridin-2-ylmethyl)urea] here?
A: The EC50 was over 20000 nM.

Q: How did the EC50 turn out when `COc1ccc(NC(=O)NCc2cccnc2)cc1` [1-(4-Methoxyphenyl)-3-(pyridin-3-ylmethyl)urea] was run?
A: Its EC50 is over 20000 nM.

same assay, conditions: Table B-4; NAMPT activation, NMN formation

Q: How did the EC50 turn out when `O=C(NCc1cn[nH]c1)Nc1ccc(-c2cccc3scnc23)cc1` [1-(4-Benzothiazol-4-yl-phenyl)-3-(1H-pyrazol-4-ylmethyl)-urea] was run?
A: The EC50 was 100 to 2000 nM.

Q: How did the EC50 turn out when `O=C(NCc1cn[nH]c1)Nc1ccc(S(=O)(=O)C2CCCCC2)cc1` [1-(4-Cyclohexanesulfonyl-phenyl)-3-(1H-pyrazol-4-ylmethyl)-urea] was run?
A: Its EC50 is 100 to 2000 nM.

Q: Which EC50 does the source give for `Cc1cccc2c1c(-c1ccc(NC(=O)NCc3cn[nH]c3)cc1)nn2C` [1-((1H-Pyrazol-4-yl)methyl)-3-(4-(1,4-dimethyl-1H-indazol-3-yl)phenyl)urea] here?
A: Its EC50 is 100 to 2000 nM.

Q: How did the EC50 turn out when `Cc1ccc2c(c1)c(-c1ccc(NC(=O)NCc3cn[nH]c3)cc1)nn2C` [1-((1H-Pyrazol-4-yl)methyl)-3-(4-(1,5-dimethyl-1H-indazol-3-yl)phenyl)urea] was run?
A: Its EC50 is 100 to 2000 nM.

Q: Which EC50 does the source give for `Cc1cccc2c(-c3ccc(NC(=O)NCc4cn[nH]c4)cc3)nn(C)c12` [1-((1H-Pyrazol-4-yl)methyl)-3-(4-(1,7-dimethyl-1H-indazol-3-yl)phenyl)urea] here?
A: Its EC50 is 2000 to 5000 nM.

Q: For `Cn1nc(-c2ccc(NC(=O)NCc3cn[nH]c3)cc2)c2ccncc21` [1-((1H-Pyrazol-4-yl)methyl)-3-(4-(1-methyl-1H-pyrazolo[3,4-c]pyridin-3-yl)phenyl)urea], which EC50 is on record?
A: Its EC50 is 2000 to 5000 nM.

Q: How did the EC50 turn out when `O=C(NCc1cn[nH]c1)Nc1ccc(-c2ncc(Cc3ccccc3)s2)cc1` [1-((1H-Pyrazol-4-yl)methyl)-3-(4-(5-benzylthiazol-2-yl)phenyl)urea] was run?
A: Its EC50 is 2000 to 5000 nM.

Q: How did the EC50 turn out when `Cn1nc(-c2ccc(NC(=O)NCc3cn[nH]c3)cc2)c2cc(Cl)ccc21` [1-((1H-Pyrazol-4-yl)methyl)-3-(4-(5-chloro-1-methyl-1H-indazol-3-yl)phenyl)urea] was run?
A: The EC50 was 100 to 2000 nM.

Q: `O=C(NCc1cn[nH]c1)Nc1ccc(-c2ncc(-c3ccccc3)s2)cc1` [1-((1H-Pyrazol-4-yl)methyl)-3-(4-(5-phenylthiazol-2-yl)phenyl)urea] was tested. Which EC50 did it give?
A: Its EC50 is 5000 to 20000 nM.

Q: Which EC50 does the source give for `O=C(NCc1cn[nH]c1)Nc1ccc(S(=O)(=O)c2cn[nH]c2)cc1` [1-((1H-Pyrazol-4-yl)methyl)-3-(4-((1H-pyrazol-4-yl)sulfonyl)phenyl)urea] here?
A: Its EC50 is 100 to 2000 nM.

Q: For `COc1ccc(-c2ccccc2S(=O)(=O)c2ccc(NC(=O)NCc3cn[nH]c3)cc2)cn1` [1-((1H-Pyrazol-4-yl)methyl)-3-(4-((2-(6-methoxypyridin-3-yl)phenyl)sulfonyl)phenyl)urea], which EC50 is on record?
A: Its EC50 is 5000 to 20000 nM.

Q: For `O=C(NCc1cn[nH]c1)Nc1ccc(S(=O)(=O)c2ccccc2F)cc1` [1-((1H-Pyrazol-4-yl)methyl)-3-(4-((2-fluorophenyl)sulfonyl)phenyl)urea], which EC50 is on record?
A: Its EC50 is under 100 nM.

Q: How did the EC50 turn out when `O=C(NCc1cn[nH]c1)Nc1ccc(S(=O)(=O)c2ccccc2-c2ccccc2Cl)cc1` [1-((1H-Pyrazol-4-yl)methyl)-3-(4-((2′-chloro-[1,1′-biphenyl]-2-yl)sulfonyl)phenyl)urea] was run?
A: Its EC50 is 100 to 2000 nM.

same assay, conditions: Table B-5; NAMPT activation, NMN formation

Q: For `O=C(NCc1cnco1)Nc1ccc(S(=O)(=O)c2ccc(Cl)cc2)cc1` [1-(4-((4-Chlorophenyl)sulfonyl)phenyl)-3-(oxazol-5-ylmethyl)urea], which EC50 is on record?
A: Its EC50 is 100 to 2000 nM.

Q: For `O=C(NCc1cnco1)Nc1ccc(S(=O)(=O)c2ccc(F)cc2)cc1` [1-(4-((4-Fluorophenyl)sulfonyl)phenyl)-3-(oxazol-5-ylmethyl)urea], which EC50 is on record?
A: Its EC50 is 100 to 2000 nM.

Q: For `O=C(NCc1cnco1)Nc1ccc(-c2nc3ccccc3s2)cc1` [1-(4-(Benzo[d]thiazol-2-yl)phenyl)-3-(oxazol-5-ylmethyl)urea], which EC50 is on record?
A: The EC50 was 5000 to 20000 nM.

Q: `O=C(NCc1cnco1)Nc1ccc(Nc2nc3ccccc3s2)cc1` [1-(4-(Benzo[d]thiazol-2-ylamino)phenyl)-3-(oxazol-5-ylmethyl)urea] was tested. Which EC50 did it give?
A: Its EC50 is 5000 to 20000 nM.

Q: With `O=C(NCc1cnco1)Nc1ccc(S(=O)(=O)c2ccccc2-c2ccccc2)cc1` [1-(4-([1,1′-Biphenyl]-2-ylsulfonyl)phenyl)-3-(oxazol-5-ylmethyl)urea] as the compound, how does the EC50 read?
A: The EC50 was under 100 nM.

Q: `O=C(NCc1cnco1)Nc1ccc(S(=O)(=O)c2cccc(-c3ccccc3)c2)cc1` [1-(4-([1,1′-Biphenyl]-3-ylsulfonyl)phenyl)-3-(oxazol-5-ylmethyl)urea] was tested. Which EC50 did it give?
A: The EC50 was 100 to 2000 nM.

Q: With `O=C(NCc1cnco1)Nc1ccc(-c2cccc3scnc23)cc1` [1-(4-Benzothiazol-4-yl-phenyl)-3-oxazol-5-ylmethyl-urea] as the compound, how does the EC50 read?
A: Its EC50 is 100 to 2000 nM.

Q: For `O=C(NCc1cnco1)Nc1ccc(NS(=O)(=O)Cc2ccc(Cl)cc2)cc1` [1-(4-Chlorophenyl)-N-(4-(3-(oxazol-5-ylmethyl)ureido)phenyl)methanesulfonamide], which EC50 is on record?
A: The EC50 was under 100 nM.

Q: With `O=C(NCc1cnco1)Nc1ccc(S(=O)(=O)C2CCCCC2)cc1` [1-(4-cyclohexanesulfonyl-phenyl)-3-oxazol-5-ylmethyl-urea] as the compound, how does the EC50 read?
A: Its EC50 is 2000 to 5000 nM.

same assay, conditions: Table B-6; NAMPT activation, NMN formation

Q: With `O=C(NCc1ccncc1)Nc1ccc(S(=O)(=O)c2cccc(F)c2)cc1` [1-(4-((3-Fluorophenyl)sulfonyl)phenyl)-3-(pyridin-4-ylmethyl)urea] as the compound, how does the EC50 read?
A: Its EC50 is under 100 nM.

Q: How did the EC50 turn out when `N#Cc1cccc(-c2ccccc2S(=O)(=O)c2ccc(NC(=O)NCc3ccncc3)cc2)c1` [1-(4-((3′-Cyano-[1,1′-biphenyl]-2-yl)sulfonyl)phenyl)-3-(pyridin-4-ylmethyl)urea] was run?
A: The EC50 was 2000 to 5000 nM.

Q: Which EC50 does the source give for `O=C(NCc1ccncc1)Nc1ccc(S(=O)(=O)c2ccc(F)cc2)cc1` [1-(4-((4-Fluorophenyl)sulfonyl)phenyl)-3-(pyridin-4-ylmethyl)urea] here?
A: The EC50 was 100 to 2000 nM.

Q: For `O=C(NCc1ccncc1)Nc1ccc(Nc2nc(-c3ccccc3)cs2)cc1` [1-(4-((4-Phenylthiazol-2-yl)amino)phenyl)-3-(pyridin-4-ylmethyl)urea], which EC50 is on record?
A: The EC50 was 100 to 2000 nM.

Q: For `N#Cc1ccc(-c2ccccc2S(=O)(=O)c2ccc(NC(=O)NCc3ccncc3)cc2)cc1` [1-(4-((4′-Cyano-[1,l′-biphenyl]-2-yl)sulfonyl)phenyl)-3-(pyridin-4-ylmethyl)urea], which EC50 is on record?
A: The EC50 was 5000 to 20000 nM.

Q: Which EC50 does the source give for `O=C(NCc1ccncc1)Nc1ccc(Nc2ncc(-c3ccccc3)s2)cc1` [1-(4-((5-Phenylthiazol-2-yl)amino)phenyl)-3-(pyridin-4-ylmethyl)urea] here?
A: Its EC50 is 5000 to 20000 nM.

Q: Which EC50 does the source give for `O=C(NCc1ccncc1)Nc1ccc(-c2nc3ccccc3s2)cc1` [1-(4-(Benzo[d]thiazol-2-yl)phenyl)-3-(pyridin-4-ylmethyl)urea] here?
A: The EC50 was 5000 to 20000 nM.

Q: With `O=C(NCc1ccncc1)Nc1ccc(S(=O)(=O)c2ccccn2)cc1` [1-(4-(Pyridin-2-ylsulfonyl)phenyl)-3-(pyridin-4-ylmethyl)urea] as the compound, how does the EC50 read?
A: The EC50 was 100 to 2000 nM.

Q: `O=C(NCc1ccncc1)Nc1ccc(S(=O)(=O)c2ccccc2-c2ccccc2)cc1` [1-(4-([1,1′-Biphenyl]-2-ylsulfonyl)phenyl)-3-(pyridin-4-ylmethyl)urea] was tested. Which EC50 did it give?
A: The EC50 was 100 to 2000 nM.

Q: For `O=C(NCc1ccncc1)Nc1ccc(-c2cccc3scnc23)cc1` [1-(4-Benzothiazol-4-yl-phenyl)-3-pyridin-4-ylmethyl-urea], which EC50 is on record?
A: The EC50 was 100 to 2000 nM.

Q: Which EC50 does the source give for `O=C(NCc1ccncc1)Nc1ccc(S(=O)(=O)C2CCCCC2)cc1` [1-(4-Cyclohexanesulfonyl-phenyl)-3-pyridin-4-ylmethyl-urea] here?
A: The EC50 was 100 to 2000 nM.

From US11452717B2, “Small molecule activators of nicotinamide phosphoribosyltransferase (NAMPT) and uses thereof” (Sanford Burnham Prebys Medical Discovery Institute, priority 2017, dated 2022)
